Reference: patent US20090233796A1, “HERBICIDAL COMPOSITION” (SYNGENTA CROP PROTECTION, INC., priority 2004, published 2009)

Experiments:
Assay type in all cases: in vivo
STELLARIA MEDIA = experiment: Compound (A) with triasulfuron, weed plots; details: 26 g per hectare; 30 DAA; No. 3.1
Procedure: In these tests, various weeds were treated with triasulfuron alone at a rate equivalent to 26 g per hectare, Compound (A) alone at a rate equivalent to 10 g per hectare, and to a mixture of triasulfuron and Compound (A) at rates equivalent to the sum of these. The compositions were formulated as an emulsifyable concentrate (EC).
The results in the table under each application are the percentage of the plants that were killed.

LAMIUM PURPUREUM = experiment: Compound (A) with paraquat, weed plots; details: 700 g/ha; 2 DAA; No. 1.5
Procedure: (§1) In these tests, various weeds were treated with paraquat alone at rates equivalent to 700 g per hectare and 840 g per hectare, compound (A) alone at rates equivalent to 10 g per hectare and 20 g per hectare, and with a mixture of paraquat and compound (A) at rates equivalent to the sum of these. The compositions were formulated as an emulsifyable concentrate (EC).
(§2) The results in the table under each application are the percentage of the weeds plants that were killed.

SETARIA SP. = experiment: Compound (A) with paraquat, weed plots; details: 700 g/ha; 27 DAA; No. 1.2
Procedure: as §1, §2

SONCHUS ASPER = experiment: Compound (A) with paraquat, weed plots; details: 840 g/ha; 32 DAA; No. 1.10
Procedure: as §1, §2

E[…]-GALLI = experiment: Compound (A) with paraquat, weed plots; details: 700 g/ha; 51 DAA; No. 1.8
Procedure: as §1, §2

SETARIA VIRIDIS = experiment: Compound (A) with paraquat, weed plots; details: 700 g/ha; 43 DAA; No. 1.3
Procedure: as §1, §2

CONYZA SP. = experiment: Compound (A) with paraquat, weed plots; details: 700 g/ha, 5 DAA
Procedure: as §1, §2

CYPERUS ROTUNDUS = experiment: Compound (A) with paraquat, weed plots; details: 840 g/ha; 56 DAA; No. 1.11
Procedure: as §1, §2

VERONICA PERSICA = experiment: Compound (A) with paraquat, weed plots; details: 700 g/ha; 69 DAA; No. 1.6
Procedure: as §1, §2

LOLIUM RIGIDUM = experiment: Compound (A) with paraquat, weed plots; details: 700 g/ha; 41 DAA; No. 1.4
Procedure: as §1, §2

DIGITARIA CILIARIS = experiment: Compound (A) with paraquat, weed plots; details: 700 g/ha; 51 DAA; No. 1.7
Procedure: as §1, §2

SMILES | percentage of the plants that were killed (STELLARIA MEDIA) | percentage of the weeds plants that were killed (LAMIUM PURPUREUM) | percentage of the weeds plants that were killed (SETARIA SP.) | percentage of the weeds plants that were killed (SONCHUS ASPER) | percentage of the weeds plants that were killed (E[…]-GALLI) | percentage of the weeds plants that were killed (SETARIA VIRIDIS) | percentage of the weeds plants that were killed (CONYZA SP.; No. 1.1) | percentage of the weeds plants that were killed (CONYZA SP.; No. 1.9) | percentage of the weeds plants that were killed (CYPERUS ROTUNDUS) | percentage of the weeds plants that were killed (VERONICA PERSICA) | percentage of the weeds plants that were killed (LOLIUM RIGIDUM) | percentage of the weeds plants that were killed (DIGITARIA CILIARIS)
COc1nc(C)nc(NC(=O)NS(=O)(=O)c2ccccc2OCCCl)n1 [Triasulfuron, triasulfuron, reference compound] | 25% | – | – | – | – | – | – | – | – | – | – | –
C[n+]1ccc(-c2cc[n+](C)cc2)cc1 [paraquat, reference compound] | – | 53% | 0% | 0% | 0% | 0% | 2% | 2% | 65% | 25% | 53% | 0%
